The test system of the experiment is 1:1 (NHF:H35) microtissues. To be noted: cultured four hours, then overnight at 37° C. in 5 mM EDTA in PBS. The method, then: To determine if extracellular calcium disintegrated the microtissues, 1:1 (NHF: H35) microtissues were cultured for 4 hours. Culture media was removed, and microtissues were washed with PBS, and then incubated overnight at 37° C. in 5 mM EDTA in PBS. Control samples were kept in regular culture media or PBS.
To examine if enhanced power was transduced through cell-cell interactions 1:1 (NHF:H35) were cultured for four hours and then incubated in EDTA to destabilize the calcium dependent cell-cell adhesions. Control samples were kept in regular culture media or PBS.

With `O=C(O)CN(CCN(CC(=O)O)CC(=O)O)CC(=O)O` [EDTA], the microtissue integrity result is recorded as “disintegrated into monodispersed cells”.
